# Reference: patent US8192962B2, “Processes for detecting toxic substances” (Daikin Industries, Ltd., priority 2001, dated 2012)
# Test system: Genes belonging to other category
# Assay: DNA chip mRNA expression in yeast, genes belonging to other category (Table 9)
# Format: cell-based, Saccharomyces cerevisiae S288C
# In short: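 Untreated cultures served as reference for log-phase S288C yeast given a growth-inhibiting, non-lethal toxicant dose for 2 h at 25° C. in YPD. Gene expression was measured on a whole-genome DNA chip from Cy3/Cy5-labeled cDNA.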
structure (smiles),measurement,setting,value
"CN(C)C(=S)SSC(=S)N(C)C [(10), Tetramethylthiuram disulfide]",The level of expressed mRNA in the presence of chemical substance/The level of expressed mRNA in the absence of chemical substance,yeast gene YJR058C,2.6
same,The level of expressed mRNA in the presence of chemical substance/The level of expressed mRNA in the absence of chemical substance,yeast gene YJR086W,1.1
same,The level of expressed mRNA in the presence of chemical substance/The level of expressed mRNA in the absence of chemical substance,yeast gene YJR110W,2.3
same,The level of expressed mRNA in the presence of chemical substance/The level of expressed mRNA in the absence of chemical substance,yeast gene YJR123W,0.5
same,The level of expressed mRNA in the presence of chemical substance/The level of expressed mRNA in the absence of chemical substance,yeast gene YKL007W,2.4
same,The level of expressed mRNA in the presence of chemical substance/The level of expressed mRNA in the absence of chemical substance,yeast gene YKL008C,0.4
same,The level of expressed mRNA in the presence of chemical substance/The level of expressed mRNA in the absence of chemical substance,yeast gene YKL013C,1.4
same,The level of expressed mRNA in the presence of chemical substance/The level of expressed mRNA in the absence of chemical substance,yeast gene YKL039W,3.3
same,The level of expressed mRNA in the presence of chemical substance/The level of expressed mRNA in the absence of chemical substance,yeast gene YKL041W,1.5
same,The level of expressed mRNA in the presence of chemical substance/The level of expressed mRNA in the absence of chemical substance,yeast gene YKL079W,2.0
same,The level of expressed mRNA in the presence of chemical substance/The level of expressed mRNA in the absence of chemical substance,yeast gene YKL096W,0.5
same,The level of expressed mRNA in the presence of chemical substance/The level of expressed mRNA in the absence of chemical substance,yeast gene YKL117W,2.1
same,The level of expressed mRNA in the presence of chemical substance/The level of expressed mRNA in the absence of chemical substance,yeast gene YKL139W,1.5
same,The level of expressed mRNA in the presence of chemical substance/The level of expressed mRNA in the absence of chemical substance,yeast gene YKL165C,0.4
same,The level of expressed mRNA in the presence of chemical substance/The level of expressed mRNA in the absence of chemical substance,yeast gene YKL171W,1.8
same,The level of expressed mRNA in the presence of chemical substance/The level of expressed mRNA in the absence of chemical substance,yeast gene YKL193C,1.6
same,The level of expressed mRNA in the presence of chemical substance/The level of expressed mRNA in the absence of chemical substance,yeast gene YKR014C,2.0
same,The level of expressed mRNA in the presence of chemical substance/The level of expressed mRNA in the absence of chemical substance,yeast gene YKR098C,2.7
same,The level of expressed mRNA in the presence of chemical substance/The level of expressed mRNA in the absence of chemical substance,yeast gene YLL050C,1.0
same,The level of expressed mRNA in the presence of chemical substance/The level of expressed mRNA in the absence of chemical substance,yeast gene YLL051C,1.8
same,The level of expressed mRNA in the presence of chemical substance/The level of expressed mRNA in the absence of chemical substance,yeast gene YLR120C,1.6
same,The level of expressed mRNA in the presence of chemical substance/The level of expressed mRNA in the absence of chemical substance,yeast gene YLR121C,2.0
same,The level of expressed mRNA in the presence of chemical substance/The level of expressed mRNA in the absence of chemical substance,yeast gene YLR136C,6.0
same,The level of expressed mRNA in the presence of chemical substance/The level of expressed mRNA in the absence of chemical substance,yeast gene YLR178C,4.1
same,The level of expressed mRNA in the presence of chemical substance/The level of expressed mRNA in the absence of chemical substance,yeast gene YLR200W,2.6
same,The level of expressed mRNA in the presence of chemical substance/The level of expressed mRNA in the absence of chemical substance,yeast gene YLR250W,2.4
same,The level of expressed mRNA in the presence of chemical substance/The level of expressed mRNA in the absence of chemical substance,yeast gene YLR266C,2.6
same,The level of expressed mRNA in the presence of chemical substance/The level of expressed mRNA in the absence of chemical substance,yeast gene YLR327C,8.3
same,The level of expressed mRNA in the presence of chemical substance/The level of expressed mRNA in the absence of chemical substance,yeast gene YLR340W,0.5
same,The level of expressed mRNA in the presence of chemical substance/The level of expressed mRNA in the absence of chemical substance,yeast gene YLR356W,1.6
same,The level of expressed mRNA in the presence of chemical substance/The level of expressed mRNA in the absence of chemical substance,yeast gene YLR362W,3.3
same,The level of expressed mRNA in the presence of chemical substance/The level of expressed mRNA in the absence of chemical substance,yeast gene YLR391W,0.7
same,The level of expressed mRNA in the presence of chemical substance/The level of expressed mRNA in the absence of chemical substance,yeast gene YLR423C,1.0
same,The level of expressed mRNA in the presence of chemical substance/The level of expressed mRNA in the absence of chemical substance,yeast gene YLR429W,1.3
same,The level of expressed mRNA in the presence of chemical substance/The level of expressed mRNA in the absence of chemical substance,yeast gene YML130C,4.2
same,The level of expressed mRNA in the presence of chemical substance/The level of expressed mRNA in the absence of chemical substance,yeast gene YMR004W,3.4
same,The level of expressed mRNA in the presence of chemical substance/The level of expressed mRNA in the absence of chemical substance,yeast gene YMR094W,0.9
same,The level of expressed mRNA in the presence of chemical substance/The level of expressed mRNA in the absence of chemical substance,yeast gene YMR104C,3.2
same,The level of expressed mRNA in the presence of chemical substance/The level of expressed mRNA in the absence of chemical substance,yeast gene YMR110C,1.6
same,The level of expressed mRNA in the presence of chemical substance/The level of expressed mRNA in the absence of chemical substance,yeast gene YMR214W,1.0
same,The level of expressed mRNA in the presence of chemical substance/The level of expressed mRNA in the absence of chemical substance,yeast gene YMR219W,0.9
same,The level of expressed mRNA in the presence of chemical substance/The level of expressed mRNA in the absence of chemical substance,yeast gene YMR226C,2.2
same,The level of expressed mRNA in the presence of chemical substance/The level of expressed mRNA in the absence of chemical substance,yeast gene YMR255W,2.4
same,The level of expressed mRNA in the presence of chemical substance/The level of expressed mRNA in the absence of chemical substance,yeast gene YMR275C,2.1
same,The level of expressed mRNA in the presence of chemical substance/The level of expressed mRNA in the absence of chemical substance,yeast gene YMR276W,1.7
same,The level of expressed mRNA in the presence of chemical substance/The level of expressed mRNA in the absence of chemical substance,yeast gene YMR297W,1.0
